The values that follow come from patent US20050124794A1, “Cell surface tropomyosin as a target of angiogenesis inhibition” (priority 2002, published 2005).

One assay deals with T1, chicken gizzard Tpm (Gallus gallus, UniProt P19352).
T1 construct: purchased Sigma; host or cells: chicken gizzard (tissue-derived, as the name says)
Briefly: Binding to immobilized Tpm in a 96 well plate (biotin-HKa competition or direct binding). Particulars: 10 μM ZnCl2; for IC50: displacement of 10 nM biotinylated-HKa; for binding to immobilized Tpm / displacement of biotin-HKa (in words): 10 nM biotin-HKa, 200 ng chicken gizzard Tpm. The procedure:
Plates are coated at room temperature with chicken gizzard Tpm (Sigma) in Tris buffer-saline (TBS) (200 ng/well). After incubation for 2 hours, wells are washed with TBS, then 1% BSA/TBS/Tween-20 is added to each well and incubate at 37° C. for two hours. HKa (Enzyme Laboratories) that had been previously biotinylated with EZ-Link (Pierce) according to the manufacturers instructions, is added to the plate at a concentration of 10 nM together with ZnCl2 (10 μM) and the appropriate concentration of the protein, domain or peptide competitor. The plates are incubated at room temperature and then washed with TBS/Tween-20. Avidin-HRP is added, incubated for 20 minutes at room temperature, washed with TBS/Tween-20 and the chromogenic substrate is added. The reaction is stopped with sulfuric acid and the plate read at 490 nm.
(§1) The IC50 for the displacement of biotinylated-HKa for the peptides shown in Table 5 was determined as follows: 10 nM biotin-HKa is added to a 96 well plate previously coated with 200 ng of chicken gizzard Tpm in the presence of 10 μM ZnCl2. Increasing amounts of the peptides are added to the wells. The remaining biotin-HKa bound to Tpm was detected using avidin-HRP and a chromogenic substrate. A Kd was determined by non-linear regression analysis of the empirical data. The effect on the Matrigel Plug assay was determined as follows: Matrigel (0.5 mL) containing 400 ng/ml of bFGF, 50 μg/ml heparin with or without the peptide (300 μM) or saline buffer are injected in the flanks of a mouse. After five days, the plugs are removed and the plugs scanned.
The N-terminus of the pentapeptide HHPHG has been derivatized (capped) in an attempt to increase the pentapeptides' affinity to Tpm by increasing productive molecular contacts (or interactions). […] The IC50 for the displacement of biotinylated-HKa for the capped peptides shown in the table was determined as follows: 10 nM biotin-HKa was added to a 96 well plate previously coated with 200 ng of chicken gizzard Tpm in the presence of 10 μM ZnCl2. Increasing amounts of the peptides were added to the wells. The remaining biotin-HKa bound to Tpm was detected using avidin-HRP and a chromogenic substrate. A Kd was determined by non-linear regression analysis of the empirical data

The subject of assay [1] is bFGF-induced angiogenesis. In words: Matrigel plug assay (bFGF-induced angiogenesis). The assay is classed as in vivo, mouse. Particulars: 400 ng/ml bFGF, five days, plugs scanned; for Inhibits Angiogenesis (Matrigel ® assay): peptide 300 μM, 50 μg/ml heparin. As to the method: This assay is performed essentially as described by Passaniti et al. (Lab Invest. 67:519-528 (1992). Ice-cold Matrigel® (e.g., 500 μL) (Collaborative Biomedical Products, Inc., Bedford, Mass.) is mixed with heparin (e.g., 50 μg/ml), FGF-2 (e.g., 400 ng/ml) and the compound to be tested. In some assays, bFGF may be substituted with tumor cells as the angiogenic stimulus. The Matrigel® mixture is injected subcutaneously into 4-8 week-old athymic nude mice at sites near the abdominal midline, preferably 3 injections per mouse. The injected Matrigel® forms a palpable solid gel. Injection sites are chosen such that each animal receives a positive control plug (such as FGF-2+heparin), a negative control plug (e.g., buffer+heparin) and a plug that includes the compound being tested for its effect on angiogenesis, e.g., (FGF-2+heparin+compound). All treatments are preferably run in triplicate. Animals are sacrificed by cervical dislocation at about 7 days post injection or another time that may be optimal for observing angiogenesis. The mouse skin is detached along the abdominal midline, and the Matrigel® plugs are recovered and scanned immediately at high resolution. Plugs are then dispersed in water and incubated at 37° C. overnight. Hemoglobin (Hb) levels are determined using Drabkin's solution (e.g., obtained from Sigma) according to the manufacturers' instructions. The amount of Hb in the plug is an indirect measure of angiogenesis as it reflects the amount of blood in the sample. In addition, or alternatively, animals may be injected prior to sacrifice with a 0.1 ml buffer (preferably PBS) containing a high molecular weight dextran to which is conjugated a fluorophore. The amount of fluorescence in the dispersed plug, determined fluorimetrically, also serves as a measure of angiogenesis in the plug. Staining with mAb anti-CD31 (CD31 is “platelet-EC adhesion molecule or PECAM”) may also be used to confirm neovessel formation and microvessel density in the plugs.
as §1
These cyclic peptides were also tested for their ability to inhibit bFGF-induced angiogenesis in vivo in a Matrigel plug assay. Matrigel (0.5 mL) containing 400 ng/ml of bFGF, 50 μg/ml heparin with or without 10 μM peptide (ATN-310, ATN-311 or ATN-312 or saline buffer for the controls, was injected subcutaneously in the hind flanks of a mouse as described above. All the treatments were done in triplicate. After five days, the vascularization of the Matrigel plug was determined fluorometrically after i.v. injection of 100 μl of dextran conjugated with fluorescein isothiocyanate (FITC-dextran; MW 250,000, Sigma). Five days after injection, the plugs were removed and subjected to mincing of tissue which releases vascular FITC-dextran into the supernatant. Samples of supernatant were subjected to fluorimetry as a measure of vascularity of the plug. The amount of vasculature (neovessels) is directly proportional to the fluorescent signal which reflects the total vascular blood volume of the plug. The results are shown in Table 7, below and expressed as arbitrary fluorescence units or as % inhibition relative to the negative control.

In a further assay the test system is MatLyLu cells. In words: Matrigel/MatLyLu model (Matrigel plug with tumor cells). Format: in vivo. To be noted: 700 μM ATN230 or 900 μM ATN294, 2×10^6 MatLyLu cells in mouse flank, seven days. An excerpt: In this assay, tumor cells, for example 1-5×10^6 cells of the 3LL Lewis lung carcinoma or the rat prostate cell line MatLyLu, are mixed with Matrigel® and then injected into the flank of a mouse following the protocol described in Sec. B., above. A mass of tumor cells and a powerful angiogenic response can be observed in the plugs after about 5 to 7 days. The anti-tumor and anti-angiogenic action of a compound in an actual tumor environment can be evaluated by including it in the plug. Measurement is then made of tumor weight, Hb levels or fluorescence levels (of a dextran-fluorophore conjugate injected prior to sacrifice). To measure Hb or fluorescence, the plugs are first homogenize with a tissue homogenizer.

Assay [2] deals with T2, D5 domain of human kininogen, HKa (Homo sapiens, UniProt P01042).
T2 construct: made in house
T2 sequence (P01042 402-526): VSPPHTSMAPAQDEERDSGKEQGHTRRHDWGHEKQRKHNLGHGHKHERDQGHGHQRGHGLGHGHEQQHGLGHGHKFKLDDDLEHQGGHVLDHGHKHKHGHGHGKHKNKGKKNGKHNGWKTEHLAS
In words: Binding to HKa D5 (affinity column). The procedure: Chicken gizzard Tpm was partially digested with Chymotrypsin as described for FIG. 19 for 100 minutes so that a 20 kDa fragment was enriched. HK-D5 had previously immobilized in an activated Sepharose (CNBr-activated Sepharose 4 B, Amersham Biosciences). The chymotryptic fragments were incubated with the HK-D5-Sepharose resin in TBS containing 10 μM ZnCl2, washed extensively in the same buffer and eluted in 2 M NaCl. The samples were run in a 10% NuPage gel (Invitrogen).
The present inventors discovered the AALBP by passing a chymotryptic digest of cTPM1 over an affinity column comprising an antiangiogenic polypeptide, specifically, the D5 domain of human kininogen, HKa. Material that bound to the column was subjected to N-terminal sequencing. The sequence was determined to be SESVKEAQE, corresponding to residues 61-69 of cTPM1 (SEQ ID NO: 1) and residues 1-9 of SEQ ID NO:2.
The fragment was partially purified by passing the chymotryptic digest through an affinity column of Sepharose-HKa-D5. The column was extensively washed and eluted with high salt buffer. The resulting material was run on an SDS gel which appears in (FIG. 20). […]

[3] abbreviates: Table 6, N-capped HHPHG peptides.

Numbered stars: 1 amine (or outer) side, 2 acyl side, 3 side chain; on linkers, the order of the positions; unused ones are H or OH. Square brackets hold non-standard residues; d marks the D form. Ends that are not written are not given here. Peptide text beside a SMILES is read from it. * marks the point of attachment. X3 = O=C([C@H](Cc1c[nH]cn1)N(Cc1ccc(Cl)cc1)[*:1])[*:2]; Fmoc = O=C(OCC1c2ccccc2-c2ccccc21)*

T1 sequence (P19352 1-284 isoform P19352-2): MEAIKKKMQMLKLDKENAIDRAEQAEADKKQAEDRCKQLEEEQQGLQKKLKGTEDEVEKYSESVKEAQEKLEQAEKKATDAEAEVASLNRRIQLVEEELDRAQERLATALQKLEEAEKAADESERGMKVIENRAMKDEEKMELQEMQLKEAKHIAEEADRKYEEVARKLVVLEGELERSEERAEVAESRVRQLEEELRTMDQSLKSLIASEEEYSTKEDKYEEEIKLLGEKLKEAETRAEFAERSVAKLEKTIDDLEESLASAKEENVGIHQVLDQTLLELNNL
T1 sequence (P04268 1-284 isoform P04268-2 F73S/I172L/T199L/N203E/L204A partner): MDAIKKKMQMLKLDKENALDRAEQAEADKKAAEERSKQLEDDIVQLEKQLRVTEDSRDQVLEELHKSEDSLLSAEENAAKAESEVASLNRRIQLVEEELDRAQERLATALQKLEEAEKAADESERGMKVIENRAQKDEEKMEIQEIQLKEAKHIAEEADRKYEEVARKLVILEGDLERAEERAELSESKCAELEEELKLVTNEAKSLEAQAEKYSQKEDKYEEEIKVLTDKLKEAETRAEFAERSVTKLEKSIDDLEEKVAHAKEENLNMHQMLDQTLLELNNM

As for APPHG [ATN246, APPHG], on chicken gizzard Tpm (Table 5), the IC50 (as a rule, the concentration at which inhibition is half-maximal) was > 10000 µM. Consider HHPHG [ATN230, HHPHG], for which the “Inhibits Angiogenesis (Matrigel ® assay)” value in assay [1] was “Yes”; in assay [1] (listed as HHPHG), “substantial activity”. Moreover, the “inhibition of MatLyLu growth, plug weight (in words)” value is “inhibited MatLyLu growth” with MatLyLu cells and “anti-tumor activity” with MatLyLu cells (listed as HHPHG). As to Ac-PPPHG-NH2 [ATN229, c-PPPHG-c], the 50% inhibitory concentration (IC50) on chicken gizzard Tpm (Table 5) was > 10000 µM.

The compound `O=C(O)CNC(=O)[C@H](Cc1c[nH]cn1)NC(=O)[C@@H]1CCCN1C(=O)[C@H](Cc1c[nH]cn1)NC(=O)[C@H](Cc1c[nH]cn1)NC(=O)OCC1c2ccccc2-c2ccccc21` [ATN-278.000.01, Fmoc] (Fmoc-HHPHG-OH; C-terminus assumed) had an IC50 on chicken gizzard Tpm (setting [3]) of 55 µM. Consider TRRHDWGH [ATN232, TRRHDWGH], for which the “Inhibits Angiogenesis (Matrigel ® assay)” value in assay [1] is “Yes”. In addition, on chicken gizzard Tpm (Table 5), the IC50 stood at 140 µM. As for Ac-HHPHG [ATN269, c-HHPHG], the IC50 on chicken gizzard Tpm (Table 5) was > 10000 µM. For Ac-HPPHG-NH2 [ATN231, c-HPPHG-c], the IC50 at chicken gizzard Tpm (Table 5) is > 10000 µM. For HKNKGKKN [ATN16, HKNKGKKN], the “Inhibits Angiogenesis (Matrigel ® assay)” value in assay [1] was “Yes”. Also, the IC50 at chicken gizzard Tpm (Table 5) is 99.5 µM. Consider “SEQ ID NO:2: chymotryptic fragment, residues 61-214 of chicken gizzard cTPM1, about 17 kDa”, for which the “binding to HKa D5 (in words)” value in assay [2] is reported as “binds”. For the compound AHPHG [ATN294], the “binding to immobilized Tpm / displacement of biotin-HKa (in words)” value with chicken gizzard Tpm is “abolished”. Also, the results for the “inhibition of MatLyLu growth, plug weight (in words)” value in the assay with MatLyLu cells and in the assay on MatLyLu cells (listed as AHPHG) were “not” and “significantly less anti-tumor activity”, respectively. HPPHG [ATN228, HPPHG]: the “inhibition of angiogenesis in the Matrigel plug model (in words)” value in assay [1] (20 μg peptide) is “inhibited angiogenesis”. Further, the “Inhibits Angiogenesis (Matrigel ® assay)” value in assay [1] is listed as “Yes”. Moreover, on chicken gizzard Tpm, the “binding to immobilized Tpm / displacement of biotin-HKa (in words)” value is “bound”. Compound `O=C(O)CNC(=O)[C@H](Cc1c[nH]cn1)NC(=O)[C@@H]1CCCN1C(=O)[C@H](Cc1c[nH]cn1)NC(=O)[C@H](Cc1c[nH]cn1)NCc1ccc(Cl)cc1` [ATN-276.000.01, 4-Chlorobenzyl] (H-[X3]HPHG-OH) came in with an IC50 at chicken gizzard Tpm (setting [3]) of 23 µM. That is a double-digit micromolar value. In the case of Ac-HHPHG-NH2 [ATN239, c-HHPHG-c], the IC50 on chicken gizzard Tpm (Table 5) is > 10000 µM. For the compound PPPHG [ATN227, PPPHG], the half-inhibitory concentration (IC50) on chicken gizzard Tpm (Table 5) was > 10000 µM.
